Test results published in PubChem BioAssay (NCI).
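1) Cells in 96-well plates. 2) Compound, 48 h, 5 concentrations. 3) Linear interpolation between surrounding doses. 4) Unreached endpoint = highest concentration. TGI: total growth inhibition.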

Columns and labels:
Assay in all cases: NCI tumour cell line growth inhibition, 48 h
[1] = test system: 786-0 renal
[2] = test system: A498 renal
[3] = test system: A549 NSCLC
[4] = test system: ACHN renal
[5] = test system: CAKI-1 renal
[6] = test system: CCRF-CEM leukemia
[7] = test system: COLO 205 colon
[8] = test system: DLD-1 colon
[9] = test system: DMS 114 small cell lung
[10] = test system: DMS 273 small cell lung
[11] = test system: EKVX NSCLC
[12] = test system: HCC-2998 colon
[13] = test system: HCT-116 colon
[14] = test system: HCT-15 colon
[15] = test system: HL-60(TB) leukemia
[16] = test system: HOP-18 NSCLC
[17] = test system: HOP-62 NSCLC
[18] = test system: HOP-92 NSCLC
[19] = test system: HT29 colon
[20] = test system: IGROV1 ovarian
[21] = test system: K-562 leukemia
[22] = test system: KM12 colon
[23] = test system: KM20L2 colon
[24] = test system: LOX IMVI melanoma
[25] = test system: LXFL 529 NSCLC
[26] = test system: M14 melanoma
[27] = test system: M19-MEL melanoma
[28] = test system: MALME-3M melanoma
[29] = test system: MOLT-4 leukemia
[30] = test system: NCI-H226 lung
[31] = test system: NCI-H23 lung
[32] = test system: NCI-H460 lung
[33] = test system: OVCAR-3 ovarian
[34] = test system: OVCAR-4 ovarian
[35] = test system: OVCAR-5 ovarian
[36] = test system: OVCAR-8 ovarian
[37] = test system: RPMI-8226 leukemia
[38] = test system: RXF 393 renal
[39] = test system: SF-268 CNS
[40] = test system: SF-295 CNS
[41] = test system: SF-539 CNS
[42] = test system: SK-MEL-2 melanoma
[43] = test system: SK-MEL-28 melanoma
[44] = test system: SK-MEL-5 melanoma
[45] = test system: SK-OV-3 ovarian
[46] = test system: SN12C renal
[47] = test system: SNB-75 CNS
[48] = test system: SNB-78 CNS
[49] = test system: SR leukemia
[50] = test system: SW-620 colon
[51] = test system: TK-10 renal
[52] = test system: U251 CNS
[53] = test system: UACC-257 melanoma
[54] = test system: UACC-62 melanoma
[55] = test system: UO-31 renal
[56] = test system: XF 498 CNS
[57] = test system: NCI-H522 lung
[58] = test system: SNB-19 CNS

`COc1ccc(OC)c(/C(C)=N/NC(N)=S)c1` was tested, and the TGI [1] was greater than 100 µM, the TGI [2] was greater than 100 µM and the TGI [3] was greater than 100 µM. The TGI [4] was greater than 100 µM, the TGI [5] was greater than 100 µM and the TGI [6] was greater than 100 µM. It also gave a TGI [7] greater than 100 µM, a TGI [8] greater than 100 µM and a TGI [9] greater than 100 µM. It also gave a TGI [10] greater than 100 µM, a TGI [11] greater than 100 µM and a TGI [12] greater than 100 µM. The TGI [13] was greater than 100 µM, the TGI [14] was greater than 100 µM and the TGI [15] was greater than 100 µM. The TGI [16] was greater than 100 µM, the TGI [17] was greater than 100 µM and the TGI [18] was greater than 100 µM. For the same compound, the TGI [19] was greater than 100 µM, the TGI [20] was greater than 100 µM and the TGI [21] was greater than 100 µM. It also gave a TGI [22] greater than 100 µM, a TGI [23] greater than 100 µM and a TGI [24] greater than 100 µM. The TGI [25] was greater than 100 µM, the TGI [26] was greater than 100 µM and the TGI [27] was greater than 100 µM. For the same compound, the TGI [28] was greater than 100 µM, the TGI [29] was greater than 100 µM and the TGI [30] was greater than 100 µM. It also gave a TGI [31] greater than 100 µM, a TGI [32] greater than 100 µM and a TGI [33] greater than 100 µM. It also gave a TGI [34] greater than 100 µM, a TGI [35] greater than 100 µM and a TGI [36] greater than 100 µM. It also gave a TGI [37] greater than 100 µM, a TGI [38] greater than 100 µM and a TGI [39] greater than 100 µM. It also gave a TGI [40] greater than 100 µM, a TGI [41] greater than 100 µM and a TGI [42] greater than 100 µM. It also gave a TGI [43] greater than 100 µM, a TGI [44] greater than 100 µM and a TGI [45] greater than 100 µM. The TGI [46] was greater than 100 µM, the TGI [47] was greater than 100 µM and the TGI [48] was greater than 100 µM. For the same compound, the TGI [49] was greater than 100 µM, the TGI [50] was greater than 100 µM and the TGI [51] was greater than 100 µM. For the same compound, the TGI [52] was greater than 100 µM, the TGI [53] was greater than 100 µM and the TGI [54] was greater than 100 µM. For the same compound, the TGI [55] was greater than 100 µM and the TGI [56] was greater than 100 µM.
`C=C(COC(C)=O)CC(OC(C)=O)c1ccccc1` (configuration not stated) showed a TGI [1] greater than 100 µM, a TGI [2] greater than 100 µM and a TGI [3] greater than 100 µM. For the same compound, the TGI [4] was greater than 100 µM, the TGI [6] was greater than 100 µM and the TGI [7] was greater than 100 µM. For the same compound, the TGI [8] was greater than 100 µM, the TGI [9] was greater than 100 µM and the TGI [10] was greater than 100 µM. For the same compound, the TGI [11] was greater than 100 µM, the TGI [12] was greater than 100 µM and the TGI [13] was greater than 100 µM. For the same compound, the TGI [14] was greater than 100 µM, the TGI [15] was greater than 100 µM and the TGI [17] was greater than 100 µM. For the same compound, the TGI [18] was greater than 100 µM, the TGI [19] was greater than 100 µM and the TGI [20] was greater than 100 µM. It also gave a TGI [21] greater than 100 µM, a TGI [22] greater than 100 µM and a TGI [23] greater than 100 µM. The TGI [24] was greater than 100 µM, the TGI [25] was greater than 100 µM and the TGI [26] was greater than 100 µM. For the same compound, the TGI [27] was greater than 100 µM, the TGI [29] was greater than 100 µM and the TGI [30] was greater than 100 µM. The TGI [31] was greater than 100 µM, the TGI [32] was greater than 100 µM and the TGI [57] was greater than 100 µM. It also gave a TGI [33] greater than 100 µM, a TGI [34] greater than 100 µM and a TGI [35] greater than 100 µM. The TGI [36] was greater than 100 µM, the TGI [37] was greater than 100 µM and the TGI [38] was greater than 100 µM. It also gave a TGI [39] greater than 100 µM, a TGI [40] greater than 100 µM and a TGI [41] greater than 100 µM. It also gave a TGI [42] greater than 100 µM, a TGI [43] greater than 100 µM and a TGI [44] greater than 100 µM. It also gave a TGI [45] greater than 100 µM, a TGI [46] greater than 100 µM and a TGI [58] greater than 100 µM. It also gave a TGI [47] greater than 100 µM, a TGI [48] greater than 100 µM and a TGI [50] greater than 100 µM. For the same compound, the TGI [51] was greater than 100 µM, the TGI [52] was greater than 100 µM and the TGI [54] was greater than 100 µM. The TGI [55] was greater than 100 µM and the TGI [56] was greater than 100 µM.
In the case of `COc1ccc(OC)c2c1CC(C(=O)O)(C(=O)O)CC2=O`, the TGI [1] is reported as greater than 100 µM, the TGI [3] is reported as greater than 100 µM and the TGI [4] is reported as greater than 100 µM. For the same compound, the TGI [5] was greater than 100 µM, the TGI [9] was greater than 100 µM and the TGI [11] was greater than 100 µM. The TGI [12] was greater than 100 µM, the TGI [13] was greater than 100 µM and the TGI [14] was greater than 100 µM. For the same compound, the TGI [15] was greater than 100 µM, the TGI [17] was greater than 100 µM and the TGI [18] was greater than 100 µM. The TGI [20] was greater than 100 µM, the TGI [21] was greater than 100 µM and the TGI [22] was greater than 100 µM. The TGI [23] was greater than 100 µM, the TGI [24] was greater than 100 µM and the TGI [25] was greater than 100 µM. It also gave a TGI [26] greater than 100 µM, a TGI [28] greater than 100 µM and a TGI [29] greater than 100 µM. It also gave a TGI [30] greater than 100 µM, a TGI [31] greater than 100 µM and a TGI [33] greater than 100 µM. For the same compound, the TGI [34] was greater than 100 µM, the TGI [35] was greater than 100 µM and the TGI [38] was greater than 100 µM. The TGI [39] was greater than 100 µM, the TGI [42] was greater than 100 µM and the TGI [43] was greater than 100 µM. It also gave a TGI [44] greater than 100 µM, a TGI [45] greater than 100 µM and a TGI [46] greater than 100 µM. The TGI [58] was greater than 100 µM, the TGI [47] was greater than 100 µM and the TGI [48] was greater than 100 µM. The TGI [50] was greater than 100 µM, the TGI [51] was greater than 100 µM and the TGI [52] was greater than 100 µM. For the same compound, the TGI [54] was greater than 100 µM and the TGI [55] was greater than 100 µM.
`CN(C)CC(C)(C)/C(=N\Nc1ccccc1)c1ccccc1` was tested, and the TGI [1] was greater than 100 µM, the TGI [2] was greater than 100 µM and the TGI [3] was greater than 100 µM. The TGI [4] was 48.5 µM, the TGI [6] was greater than 100 µM and the TGI [7] was greater than 100 µM. The TGI [8] was greater than 100 µM, the TGI [9] was greater than 100 µM and the TGI [10] was greater than 100 µM. It also gave a TGI [11] greater than 100 µM, a TGI [13] greater than 100 µM and a TGI [14] of 53.8 µM. The TGI [15] was 50.6 µM, the TGI [16] was greater than 100 µM and the TGI [17] was greater than 100 µM. It also gave a TGI [19] greater than 100 µM, a TGI [20] greater than 100 µM and a TGI [21] greater than 100 µM. For the same compound, the TGI [22] was greater than 100 µM, the TGI [23] was 36.7 µM and the TGI [24] was 37.6 µM. The TGI [25] was 51.4 µM, the TGI [26] was 66.5 µM and the TGI [27] was greater than 100 µM. It also gave a TGI [28] greater than 100 µM, a TGI [29] greater than 100 µM and a TGI [31] greater than 100 µM. For the same compound, the TGI [32] was greater than 100 µM, the TGI [57] was greater than 100 µM and the TGI [33] was greater than 100 µM. It also gave a TGI [34] greater than 100 µM, a TGI [35] greater than 100 µM and a TGI [36] greater than 100 µM. For the same compound, the TGI [37] was greater than 100 µM, the TGI [38] was greater than 100 µM and the TGI [39] was greater than 100 µM. The TGI [40] was 46.4 µM, the TGI [41] was 63.4 µM and the TGI [42] was greater than 100 µM. It also gave a TGI [43] greater than 100 µM, a TGI [44] greater than 100 µM and a TGI [45] of 73.3 µM. For the same compound, the TGI [46] was greater than 100 µM, the TGI [58] was greater than 100 µM and the TGI [47] was greater than 100 µM. It also gave a TGI [48] greater than 100 µM, a TGI [50] greater than 100 µM and a TGI [51] of 61.1 µM. For the same compound, the TGI [52] was greater than 100 µM, the TGI [53] was greater than 100 µM and the TGI [54] was 40.8 µM. The TGI [55] was 29.3 µM.
